Measured values reported in the supplement of paper PMC10307832.

Experiments:
Assay in all cases: relative viability (nuclei count vs DMSO), 5 days (fraction); higher = more cells survive
Crenolanib + Foretinib = compound: CC1(COc2ccc3c(c2)ncn3-c2ccc3cccc(N4CCC(N)CC4)c3n2)COC1 [Crenolanib] + COc1cc2c(Oc3ccc(NC(=O)C4(C(=O)Nc5ccc(F)cc5)CC4)cc3F)ccnc2cc1OCCCN1CCOCC1 [Foretinib] (partner 0.25 µM)
Summary of the method: (§1)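 Five library-drug doses in √10 steps were combined with a fixed anchor-drug dose, or a single drug was given alone, by pin tool to lung cancer cell lines in 1536-well plates the day after seeding. Nuclei were stained and counted after 5 days. Relative viability is the nuclei count in treated wells over that in vehicle wells, taken as the median of duplicate plates.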

Crenolanib + Navitoclax = compound: CC1(COc2ccc3c(c2)ncn3-c2ccc3cccc(N4CCC(N)CC4)c3n2)COC1 [Crenolanib] + CC1(C)CCC(c2ccc(Cl)cc2)=C(CN2CCN(c3ccc(C(=O)NS(=O)(=O)c4ccc(N[C@H](CCN5CCOCC5)CSc5ccccc5)c(S(=O)(=O)C(F)(F)F)c4)cc3)CC2)C1 [Navitoclax] (partner 0.5 µM)
Summary of the method: as §1

Tivantinib = compound: O=C1NC(=O)[C@@H](c2cn3c4c(cccc24)CCC3)[C@@H]1c1c[nH]c2ccccc12 [Tivantinib]
Summary of the method: (§2)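 Lung cancer cell lines received five library-drug doses (not always all listed) spaced by √10, pinned on vehicle-anchored 1536-well plates after an overnight stay at 37 °C. Five days later, with no medium change, nuclei were Hoechst-stained, imaged at 4× and counted with MetaXpress. Viability is treated-well nuclei relative to vehicle-well nuclei, as a median across plates. Passing plates had control CV below 25% and at least one doubling.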

Crenolanib = compound: CC1(COc2ccc3c(c2)ncn3-c2ccc3cccc(N4CCC(N)CC4)c3n2)COC1 [Crenolanib]
Summary of the method: as §2

Cell Line | relative viability (Crenolanib + Foretinib; first compound 0.01 µM) | relative viability (Crenolanib + Foretinib; first compound 0.03162 µM) | relative viability (Crenolanib + Foretinib; first compound 0.3162 µM) | relative viability (Crenolanib + Foretinib; first compound 1 µM) | relative viability (Crenolanib + Navitoclax; first compound 0.01 µM) | relative viability (Crenolanib + Navitoclax; first compound 0.03162 µM) | relative viability (Crenolanib + Navitoclax; first compound 0.1 µM) | relative viability (Crenolanib + Navitoclax; first compound 0.3162 µM) | relative viability (Crenolanib + Navitoclax; first compound 1 µM) | relative viability (Tivantinib; 0.01 µM) | relative viability (Tivantinib; 0.03162 µM) | relative viability (Tivantinib; 0.1 µM) | relative viability (Tivantinib; 0.3162 µM) | relative viability (Crenolanib; 0.01 µM) | relative viability (Crenolanib; 0.03162 µM) | relative viability (Crenolanib; 0.1 µM) | relative viability (Crenolanib; 0.3162 µM) | relative viability (Crenolanib; 1 µM) | relative viability (Crenolanib + Foretinib; first compound 0.1 µM)
HCC-78 | 0.584 | 0.59 | 0.545 | 0.525 | 0.754 | 0.8 | 0.726 | 0.727 | 0.764 | 0.979 | 0.922 | 0.917 | 0.655 | 1.01 | 0.808 | 0.84 | 1.02 | 0.804 | 
HOP-62 | 1.19 | 1.23 | 1.08 | 1.15 | 1.08 | 0.958 | 0.81 | 1.06 | 1.12 | 0.975 | 0.787 | 0.972 | 1.02 | 0.986 | 1.02 | 0.977 | 1.1 | 0.933 | 1.09
NCI-H1623 | 0.99 | 0.888 | 0.859 | 0.838 |  |  |  |  |  | 0.978 | 0.961 | 0.911 |  | 1.08 | 0.968 | 0.876 | 1.01 | 0.94 | 0.86
NCI-H2405 | 1.16 | 1.05 | 1.02 | 1.06 | 1.34 | 0.917 | 0.441 | 0.765 | 0.806 | 1.07 | 1.01 | 0.983 | 1.03 | 0.999 | 0.885 | 0.81 | 1 | 0.871 | 
PC-3 [JPC-3] | 1.16 | 1.12 | 1.05 | 1.03 | 0.783 | 0.788 | 0.754 | 0.841 | 0.869 | 1.04 | 1.13 | 1.08 | 0.697 | 1.08 | 1.01 | 0.93 | 1.06 | 0.977 | 0.955
NCI-H1666 | 0.987 | 0.897 | 1.02 | 0.974 | 1.07 | 0.998 | 0.872 | 1.19 | 0.971 | 1.01 | 0.952 | 0.977 | 0.83 | 1.05 | 0.974 | 0.951 | 1.04 | 0.965 | 0.886
HCC-15 | 1.08 | 1.07 | 1.01 | 0.853 | 0.694 | 0.673 | 0.677 | 0.784 | 0.729 | 0.988 | 0.91 | 0.977 | 1.08 | 1.01 | 0.991 | 0.93 | 1.08 | 0.803 | 0.989
NCI-H1563 | 0.952 | 0.884 | 0.899 | 0.948 |  |  |  |  |  | 1.03 | 0.988 | 0.841 | 0.822 | 1.02 | 0.877 | 1 | 0.952 | 0.928 | 0.852
ABC-1 | 1.43 | 0.889 | 1.12 | 1.46 |  |  |  |  |  | 0.887 | 0.98 | 0.821 | 0.805 | 1.08 | 0.876 | 0.855 | 0.985 | 0.795 | 1.13
SW 900 | 0.69 | 0.91 | 1.15 | 0.848 |  |  |  |  |  | 1.05 | 0.709 | 0.928 | 0.878 | 0.813 | 0.851 | 1.06 | 0.86 | 0.645 | 0.818
NCI-H1648 |  |  |  |  |  |  |  |  |  | 0.818 | 0.863 | 0.984 | 0.323 | 0.878 | 0.605 | 0.871 | 0.865 | 1.07 | 
LCLC-103H | 0.947 | 0.88 | 0.826 | 0.622 |  |  |  |  |  | 0.895 | 0.842 | 0.963 | 0.951 | 1.01 | 1.01 | 0.892 | 0.983 | 0.92 | 0.874
HCC-44 |  |  |  |  | 0.951 | 0.998 | 0.961 | 0.987 | 0.94 | 1.02 | 1.03 | 1.02 | 0.908 | 1.04 | 0.965 | 0.994 | 0.986 | 0.806 | 
NCI-H358 | 0.816 | 0.666 | 0.701 | 0.567 |  |  |  |  |  | 0.94 | 0.909 | 0.865 | 0.355 | 1.03 | 1.04 | 0.856 | 0.924 | 0.672 | 0.634
NCI-H2342 | 1.01 | 1.02 | 1.2 | 0.816 |  |  |  |  |  | 1.1 | 0.983 | 0.934 | 0.815 | 1.07 | 0.844 | 0.924 | 1.09 | 0.968 | 1
NCI-H522 |  |  |  |  |  |  |  |  |  | 0.943 | 0.71 | 0.839 | 0.741 | 0.938 | 0.881 | 1.03 | 0.869 | 0.95 | 
NCI-H650 | 1.09 | 0.986 | 1.02 | 1 |  |  |  |  |  | 0.98 | 0.671 | 0.896 | 0.943 | 0.999 | 0.798 | 0.963 | 0.868 | 0.887 | 0.991
NCI-H661 | 0.972 | 0.969 | 1.07 | 1.02 |  |  |  |  |  | 1.07 | 0.971 | 0.956 | 0.811 | 0.962 | 1 | 1.02 | 1.04 | 1.01 | 0.99
NCI-H1792 |  |  |  |  | 0.656 | 0.408 | 0.579 | 0.673 | 0.642 | 0.849 | 0.842 | 0.935 | 1.08 | 1.15 | 0.777 | 0.82 | 0.858 | 0.784 | 
